In ChEMBL document CHEMBL3046531, “Analgesic study of novel pyrimidine derivatives linked with coumarin moiety” (2012):

Legend:
Format in all cases: functional
[1] = test system: Mus musculus; experiment: Analgesic activity in Mus musculus Swiss albino (mouse) assessed as protection against acetic acid-induced writhing response at 20 mg/kg, po administered 30 min before acetic acid challenge measured at 1 hr after challenge
[2] = test system: Mus musculus; experiment: Analgesic activity in Mus musculus Swiss albino (mouse) assessed as protection against acetic acid-induced writhing response at 20 mg/kg, po administered 30 min before acetic acid challenge measured at 2 hr after challenge
[3] = test system: Mus musculus; experiment: Analgesic activity in Mus musculus Swiss albino (mouse) assessed as protection against acetic acid-induced writhing response at 20 mg/kg, po administered 30 min before acetic acid challenge measured at 0.5 hr after challenge

Nc1nc(-c2ccccc2Cl)cc(-c2cc3ccccc3oc2=O)n1
Activity [1]: 12.05% | Activity [2]: 11.63% | Activity [3]: 8.22%

O=C([O-])Cc1ccccc1Nc1c(Cl)cccc1Cl.[Na+] [DICLOFENAC SODIUM]
Activity [1]: 96.76% | Activity [2]: 93.35% | Activity [3]: 91.13%

Nc1nc(-c2cccc(Br)c2)cc(-c2cc3ccccc3oc2=O)n1
Activity [1]: 33.52% | Activity [2]: 31.57% | Activity [3]: 25.94%

COc1cccc(-c2cc(-c3cc4ccccc4oc3=O)nc(N)n2)c1
Activity [1]: 53.52% | Activity [2]: 49.3% | Activity [3]: 46.51%

COc1ccccc1-c1cc(-c2cc3ccccc3oc2=O)nc(N)n1
Activity [1]: 35.58% | Activity [2]: 33.79% | Activity [3]: 35.44%

Nc1nc(-c2ccc(Cl)cc2)cc(-c2cc3ccccc3oc2=O)n1
Activity [1]: 12.35% | Activity [2]: 10.8% | Activity [3]: 9.49%

Nc1nc(-c2ccccc2Br)cc(-c2cc3ccccc3oc2=O)n1
Activity [1]: 30.58% | Activity [2]: 27.7% | Activity [3]: 23.41%

Nc1nc(-c2ccc(Br)cc2)cc(-c2cc3ccccc3oc2=O)n1
Activity [1]: 29.41% | Activity [2]: 26.59% | Activity [3]: 28.16%

Nc1nc(-c2cccc(Cl)c2)cc(-c2cc3ccccc3oc2=O)n1
Activity [1]: 60.58% | Activity [2]: 56.5% | Activity [3]: 52.21%
